# Results from patent US12371454B2, “Cyclic peptide compound having Kras inhibitory action” (priority 2019, dated 2025).
# Starred links: 1 amine or outer side, 2 acyl side, 3 side chain; linkers in the order of their positions; H or OH if unused. Positions of bridges follow the written chain, without caps; N, C: chain ends. Non-standard residues stand in square brackets, D forms with d. Residues, ends and D or L forms follow the SMILES beside them. *: point of attachment. NMeAbu(3,3-F2-piperidino) = CN[C@@H](CCN1CCCC(F)(F)C1)C(=O)O; hPhe(3-Cl-4-CF3) = N[C@@H](CCc1ccc(C(F)(F)F)c(Cl)c1)C(=O)O; hPhe(3-F,4-CF3) = N[C@@H](CCc1ccc(C(F)(F)F)c(F)c1)C(=O)O; NMeAbu(4,4,4-F3) = CN[C@@H](CC(F)(F)F)C(=O)O; NMePhe(3-Cl) = CN[C@@H](Cc1cccc(Cl)c1)C(=O)O; NMePhe(4-Me) = CN[C@@H](Cc1ccc(C)cc1)C(=O)O; NMedβ3hAla = C[C@H](CC(=O)[*:2])N(C)[*:1]; dβ3hPip = O=C(C[C@H]1CCCCN1[*:1])[*:2]; NMeAla(cPr) = CN[C@@H](CC1CC1)C(=O)O; NMeGly(cBu) = CN[C@H](C(=O)O)C1CCC1; NMeCha = CN[C@@H](CC1CCCCC1)C(=O)O; NMehLeu = CN[C@@H](CCC(C)C)C(=O)O; NMeChg = CN[C@H](C(=O)O)C1CCCCC1; NMeI = CC[C@H](C)[C@H](NC)C(=O)O; NMeT = CN[C@H](C(=O)O)[C@@H](C)O; NMeD = CN[C@@H](CC(=O)O)C(=O)O; NMeL = CN[C@@H](CC(C)C)C(=O)O; NMeNva = CCC[C@H](NC)C(=O)O; NMeV = CN[C@H](C(=O)O)C(C)C; Trifluoroethyl = FC(F)(F)C*; d(β3hA) = C[C@@H](N)CC(=O)O; NMeS = CN[C@@H](CO)C(=O)O; Morpholide = C1CN(*)CCO1; NMeA = CN[C@@H](C)C(=O)O; Piperidide = C1CCN(*)CC1; Pyrrolidide = C1CCN(*)C1; Ac5c = NC1(C(=O)O)CCCC1; Aze = O=C(O)[C@@H]1CCN1; Ac4c = NC1(C(=O)O)CCC1; Sar = CNCC(=O)O; Propyl = CCC*
# Experiments:
# [1] = molecular target: T1, Kras and SOS1 (biotin-tagged human Kras loaded with GDP, His-tagged human SOS1) (Homo sapiens, UniProt P01116, G12D); test: Protein-protein interaction inhibition between Kras and SOS1 (KrasGl2D-SOS PPI) using AlphaScreen; type: binding; settings: AlphaScreen; biotin-tagged human Kras loaded with GDP, His-tagged human SOS1; read-out: KRAS G12D-SOS PPI IC50
# T1 construct: made in house; host or cells: E. coli (stated for Kras only)
# T1 sequence (P01116 1-188 isoform P01116-2 G12D): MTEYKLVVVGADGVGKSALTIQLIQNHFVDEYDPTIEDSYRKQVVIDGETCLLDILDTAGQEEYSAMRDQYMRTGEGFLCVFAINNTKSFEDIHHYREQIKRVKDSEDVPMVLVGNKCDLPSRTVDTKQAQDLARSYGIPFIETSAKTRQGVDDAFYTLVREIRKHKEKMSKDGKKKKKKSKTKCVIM
# Method in brief: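 Energy transfer from nickel-chelate donor beads bound to His-SOS1 to streptavidin acceptor beads bound to biotin-Kras, expressed in E. coli and loaded with GDP after purification, was monitored. Donors were excited at 680 nm; singlet oxygen reaching acceptors gave emission read at 520-620 nm.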
# [2] = system: Human pancreatic cancer cell line AsPC-1; test: Measurement of AsPC-1 cell growth inhibition (AsPC-1 CGI); type: cell-based; settings: 96 h
# Method in brief: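 AsPC-1 cells in 15% FBS RPMI-1640 were exposed to test compound for 96 hours at 37° C, with CellTiter-Glo as endpoint.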
Compound,IC50 [1] [nM],IC50 [2] [nM]
CC[C@H](C)[C@@H]1NC(=O)[C@H](CC(C)C)N(C)C(=O)C[C@@H](C(=O)N2CCCCC2)N(C)C(=O)[C@H](C(C)C)N(C)C(=O)C2(CCC2)NC(=O)[C@@H]2CCCN2C(=O)[C@H](CCc2ccc(C(F)(F)F)c(Cl)c2)NC(=O)CN(C)C(=O)[C@H](CC2CCCCC2)N(C)C(=O)CN(C)C(=O)CN(C)C1=O [Compound 712] ([NMeL]I[Sar][Sar][NMeCha][Sar][hPhe(3-Cl-4-CF3)]P[Ac4c][NMeV][NMeD]-Piperidide; lactam N-11),2.7,50 to 100
CC[C@H](C)[C@@H]1NC(=O)[C@H](C)N(C)C(=O)C[C@@H](C)N(C)C(=O)[C@H](C(C)C)N(C)C(=O)C2(CCCC2)NC(=O)[C@@H]2CCCN2C(=O)[C@H](CCc2ccc(C(F)(F)F)c(Cl)c2)NC(=O)CN(C)C(=O)[C@H](CC2CCCCC2)N(C)C(=O)CN(C)C(=O)CN(C)C1=O [Compound 714] (cyclo([Ac5c][NMeV][NMedβ3hAla][NMeA]I[Sar][Sar][NMeCha][Sar][hPhe(3-Cl-4-CF3)]P)),2.3,100 to 500
CC[C@H](C)[C@@H]1NC(=O)[C@H](CC(C)C)N(C)C(=O)C[C@@H](C(=O)N2CCCCC2)N(C)C(=O)[C@H](C2CCCCC2)N(C)C(=O)C2(CCCC2)NC(=O)[C@@H]2CCCN2C(=O)[C@H](CCc2ccc(C(F)(F)F)c(Cl)c2)NC(=O)CN(C)C(=O)[C@H](COCC(F)(F)F)N(C)C(=O)CN(C)C(=O)CN(C)C1=O [Compound 732] ([NMeL]I[Sar][Sar][NMeS](Trifluoroethyl)[Sar][hPhe(3-Cl-4-CF3)]P[Ac5c][NMeChg][NMeD]-Piperidide; lactam N-11),1.4,100 to 500
"CCCOC[C@H]1C(=O)N(C)CC(=O)N[C@@H](CCc2ccc(C(F)(F)F)c(Cl)c2)C(=O)N2CCC[C@H]2C(=O)NC2(CCCC2)C(=O)N(C)[C@@H](C2CCCCC2)C(=O)N(C)[C@H](C(=O)N2CCCC2)CC(=O)N(C)[C@@H](CC(F)(F)F)C(=O)N[C@@H]([C@@H](C)CC)C(=O)N(C)CC(=O)N(C)CC(=O)N1C [Compound 735] ([NMeAbu(4,4,4-F3)]I[Sar][Sar][NMeS](Propyl)[Sar][hPhe(3-Cl-4-CF3)]P[Ac5c][NMeChg][NMeD]-Pyrrolidide; lactam N-11)",0.44,50 to 100
CC[C@H](C)[C@@H]1NC(=O)[C@H](CC(C)C)N(C)C(=O)C[C@H]2CCCCN2C(=O)[C@H](C(C)C)N(C)C(=O)C2(CCCC2)NC(=O)[C@@H]2CCCN2C(=O)[C@H](CCc2ccc(C(F)(F)F)c(Cl)c2)NC(=O)CN(C)C(=O)[C@H](CC2CCCCC2)N(C)C(=O)CN(C)C(=O)CN(C)C1=O [Compound 747] (cyclo([Ac5c][NMeV][dβ3hPip][NMeL]I[Sar][Sar][NMeCha][Sar][hPhe(3-Cl-4-CF3)]P)),11,100 to 500
CC[C@H](C)[C@@H]1NC(=O)[C@H]([C@@H](C)O)N(C)C(=O)C[C@@H](C(=O)N2CCCCC2)N(C)C(=O)[C@H](C2CCCCC2)N(C)C(=O)C2(CCCC2)NC(=O)[C@@H]2CCCN2C(=O)[C@H](CCc2ccc(C(F)(F)F)c(Cl)c2)NC(=O)CN(C)C(=O)[C@H](CC2CCCCC2)N(C)C(=O)CN(C)C(=O)CN(C)C1=O [Compound 756] ([NMeT]I[Sar][Sar][NMeCha][Sar][hPhe(3-Cl-4-CF3)]P[Ac5c][NMeChg][NMeD]-Piperidide; lactam N-11),0.58,100 to 500
CC[C@H](C)[C@@H]1NC(=O)[C@H](CC(C)C)N(C)C(=O)C[C@@H](C(=O)N2CCCCC2)N(C)C(=O)[C@H](CCC(C)C)N(C)C(=O)C2(CCCC2)NC(=O)[C@@H]2CCCN2C(=O)[C@H](CCc2ccc(C(F)(F)F)c(Cl)c2)NC(=O)CN(C)C(=O)[C@H](CC2CCCCC2)N(C)C(=O)CN(C)C(=O)CN(C)C1=O [Compound 762] ([NMeL]I[Sar][Sar][NMeCha][Sar][hPhe(3-Cl-4-CF3)]P[Ac5c][NMehLeu][NMeD]-Piperidide; lactam N-11),5.5,100 to 500
"CC[C@H](C)[C@@H]1NC(=O)[C@H](CC(F)(F)F)N(C)C(=O)C[C@@H](C(=O)N2CCOCC2)N(C)C(=O)[C@H](C2CCCCC2)N(C)C(=O)C2(CCCC2)NC(=O)[C@@H]2CCCN2C(=O)[C@H](CCc2ccc(C(F)(F)F)c(Cl)c2)NC(=O)CN(C)C(=O)[C@H](CC2CCCCC2)N(C)C(=O)CN(C)C(=O)CN(C)C1=O [Compound 774] ([NMeAbu(4,4,4-F3)]I[Sar][Sar][NMeCha][Sar][hPhe(3-Cl-4-CF3)]P[Ac5c][NMeChg][NMeD]-Morpholide; lactam N-11)",0.55,20 to 50
CCC[C@H]1C(=O)N[C@@H]([C@@H](C)CC)C(=O)N(C)CC(=O)N(C)CC(=O)N(C)[C@@H](CC2CCCCC2)C(=O)N(C)CC(=O)N[C@@H](CCc2ccc(C(F)(F)F)c(Cl)c2)C(=O)N2CCC[C@H]2C(=O)NC2(CCCC2)C(=O)N(C)[C@@H](C2CCCCC2)C(=O)N(C)[C@H](C(=O)N2CCCCC2)CC(=O)N1C [Compound 778] ([NMeNva]I[Sar][Sar][NMeCha][Sar][hPhe(3-Cl-4-CF3)]P[Ac5c][NMeChg][NMeD]-Piperidide; lactam N-11),0.7,20 to 50
CC[C@H](C)[C@@H]1NC(=O)[C@H](CC(C)C)N(C)C(=O)C[C@@H](C(=O)N(C)C)N(C)C(=O)[C@H]([C@@H](C)CC)N(C)C(=O)C2(CCCC2)NC(=O)[C@H](Cc2cccc(Cl)c2)N(C)C(=O)[C@H](CCc2ccc(C(F)(F)F)c(Cl)c2)NC(=O)CN(C)C(=O)[C@H](Cc2ccc(C)cc2)N(C)C(=O)[C@@H]2CCN2C(=O)[C@H](C)N(C)C1=O [Compound 783] ([NMeL]I[NMeA][Aze][NMePhe(4-Me)][Sar][hPhe(3-Cl-4-CF3)][NMePhe(3-Cl)][Ac5c][NMeI][NMeD]-NMe2; lactam N-11),9.8,50 to 100
CC[C@H](C)[C@@H]1NC(=O)[C@H](CC(C)C)N(C)C(=O)C[C@@H](C(=O)N2CCCCC2)N(C)C(=O)[C@H](CC2CC2)N(C)C(=O)C2(CCCC2)NC(=O)[C@@H]2CCCN2C(=O)[C@H](CCc2ccc(C(F)(F)F)c(Cl)c2)NC(=O)CN(C)C(=O)[C@H](CC2CCCCC2)N(C)C(=O)CN(C)C(=O)CN(C)C1=O [Compound 787] ([NMeL]I[Sar][Sar][NMeCha][Sar][hPhe(3-Cl-4-CF3)]P[Ac5c][NMeAla(cPr)][NMeD]-Piperidide; lactam N-11),2.9,100 to 500
"CC[C@H](C)[C@@H]1NC(=O)[C@H](CC(C)C)N(C)C(=O)C[C@@H](C(=O)N2CCCC2)N(C)C(=O)[C@H](C(C)C)N(C)C(=O)C2(CCCC2)NC(=O)[C@@H]2CCCN2C(=O)[C@H](CCc2ccc(C(F)(F)F)c(F)c2)NC(=O)CN(C)C(=O)[C@H](CC2CCCCC2)N(C)C(=O)CN(C)C(=O)CN(C)C1=O [Compound 804] ([NMeL]I[Sar][Sar][NMeCha][Sar][hPhe(3-F,4-CF3)]P[Ac5c][NMeV][NMeD]-Pyrrolidide; lactam N-11)",0.99,100 to 500
CCCOC[C@H]1C(=O)N2CC[C@H]2C(=O)N(C)[C@@H](CC2CCCCC2)C(=O)N(C)CC(=O)N[C@@H](CCc2ccc(C(F)(F)F)c(Cl)c2)C(=O)N2CCC[C@H]2C(=O)NC2(CCCC2)C(=O)N(C)[C@@H](C(C)C)C(=O)N(C)[C@H](C(=O)N2CCCCC2)CC(=O)N(C)[C@@H](CC(C)C)C(=O)N[C@@H]([C@@H](C)CC)C(=O)N1C [Compound 809] ([NMeL]I[NMeS](Propyl)[Aze][NMeCha][Sar][hPhe(3-Cl-4-CF3)]P[Ac5c][NMeV][NMeD]-Piperidide; lactam N-11),47,100 to 500
"CC[C@H](C)[C@@H]1NC(=O)[C@H](CC(F)(F)F)N(C)C(=O)C[C@@H](C(=O)N2CCCC2)N(C)C(=O)[C@H](C2CCCCC2)N(C)C(=O)C2(CCCC2)NC(=O)[C@@H]2CCCN2C(=O)[C@H](CCc2ccc(C(F)(F)F)c(Cl)c2)NC(=O)CN(C)C(=O)[C@H](Cc2ccc(C)cc2)N(C)C(=O)CN(C)C(=O)CN(C)C1=O [Compound 814] ([NMeAbu(4,4,4-F3)]I[Sar][Sar][NMePhe(4-Me)][Sar][hPhe(3-Cl-4-CF3)]P[Ac5c][NMeChg][NMeD]-Pyrrolidide; lactam N-11)",0.41,20 to 50
CC[C@H](C)[C@@H]1NC(=O)[C@H](C2CCC2)N(C)C(=O)C[C@@H](C)NC(=O)[C@H](C(C)C)N(C)C(=O)C2(CCCC2)NC(=O)[C@@H]2CCCN2C(=O)[C@H](CCc2ccc(C(F)(F)F)c(Cl)c2)NC(=O)CN(C)C(=O)[C@H](CC2CCCCC2)N(C)C(=O)CN(C)C(=O)CN(C)C1=O [Compound 815] (cyclo([Ac5c][NMeV][d(β3hA)][NMeGly(cBu)]I[Sar][Sar][NMeCha][Sar][hPhe(3-Cl-4-CF3)]P)),26,100 to 500
"CC[C@H](C)[C@@H]1NC(=O)[C@H](CC(C)C)N(C)C(=O)C[C@@H](C(=O)N(C)C)N(C)C(=O)[C@H]([C@@H](C)CC)N(C)C(=O)C2(CCCC2)NC(=O)[C@H](CCN2CCCC(F)(F)C2)N(C)C(=O)[C@H](CCc2ccc(C(F)(F)F)c(Cl)c2)NC(=O)CN(C)C(=O)[C@H](Cc2ccc(C)cc2)N(C)C(=O)[C@@H]2CCN2C(=O)[C@H](C)N(C)C1=O [Compound 818] ([NMeL]I[NMeA][Aze][NMePhe(4-Me)][Sar][hPhe(3-Cl-4-CF3)][NMeAbu(3,3-F2-piperidino)][Ac5c][NMeI][NMeD]-NMe2; lactam N-11)",1.2,20 to 50
CC[C@H](C)[C@@H]1NC(=O)[C@H]([C@@H](C)OC)N(C)C(=O)C[C@@H](C(=O)N2CCCCC2)N(C)C(=O)[C@H](C2CCCCC2)N(C)C(=O)C2(CCCC2)NC(=O)[C@@H]2CCCN2C(=O)[C@H](CCc2ccc(C(F)(F)F)c(Cl)c2)NC(=O)CN(C)C(=O)[C@H](CC2CCCCC2)N(C)C(=O)CN(C)C(=O)CN(C)C1=O [Compound 820] ([NMeT](Me)I[Sar][Sar][NMeCha][Sar][hPhe(3-Cl-4-CF3)]P[Ac5c][NMeChg][NMeD]-Piperidide; lactam N-11),0.73,50 to 100
